The text below walks through data of EP4775575A1, “COMPOUND USED AS CDK4 KINASE INHIBITOR AND USE THEREOF” (TYK Medicines, Inc., priority 2023, dated 2025).

For assay [1], the system named is human mantle cell lymphoma cells JEKO-1. Kind of assay: Cell anti-proliferation assay (MTT), JEKO-1. Type of assay: cell-based. As to conditions: Homo sapiens, 120 h, JEKO-1 cells, incubated for 5 days. The procedure: (§1) Human breast cancer cells MCF-7, human ovarian cancer cells A2780, human mantle cell lymphoma cells JEKO-1. DMEM medium (Bio-Channel), DMSO (dimethyl sulfoxide), MTT (thiazolyl blue), 0.25% EDTA-Trypsin (trypsin digestive solution), 1×PBS (phosphate buffered saline, pH 7.2), 96-well plate (Corning), fetal bovine serum (FBS), 10,000 U/mL penicillin-G/streptomycin, high-speed refrigerated centrifuge (EPPENDORF 5810R), and microplate reader (Tecan Spark).
(§2) • A) Tumor cells were cultured in DMEM (high glucose, containing 10% FBS and 100 U/mL penicillin-G/streptomycin) at 37 °C, 5% CO2 and saturated humidity until 80-90% confluence. • B) The medium in the 10 cm culture dish was removed. • C) Cells were rinsed once with 10 mL of 1×PBS. • D) 4 mL of 0.25% EDTA-Trypsin was added, and the cells were digested in a 37 °C, 5% CO2 incubator for 5 minutes. The mixture was transferred to a 15 mL centrifuge tube, centrifuged at 200 g for 5 minutes, and the supernatant was discarded to obtain cell pellet. • E) The cells were resuspended in 4 mL of DMEM medium, counted, and adjusted to 50,000 cells/mL. • F) 100 µL of cell suspension was added to each well of a 96-well plate, and the plate was incubated overnight at 37 °C in a 5% CO2 incubator.
(§3) • A) Gradient dilution solutions of the test compounds were prepared: the test compound was prepared into a 1 mM stock solution. Then 1.5 µL of the stock solution was dissolved in 1.5 mL of DMSO-free medium, followed by 3-fold serial gradient dilution with medium containing 0.1% DMSO to give 9 concentrations.
(§4) • A) The cell culture plate was taken out, and 10 µL of 5 mg/mL MTT was added in a biological safety cabinet; • B) The plate was returned to the incubator and incubated for another 3 hours; • C) The cell culture plate was taken out and the medium was removed, 100 µL of isopropanol (containing 0.4 mM HCl, 0.1% NP-40) was added, and the plate was shaken at room temperature for 30 minutes; • D) The absorbance at 570 nm was measured using a TECAN microplate reader.

Assay [2] deals with human ovarian cancer cells A2780. The assay can be described thus: Cell anti-proliferation assay (MTT), A2780. Type of assay: cell-based. To be noted: Homo sapiens, 120 h, incubated for 5 days. The procedure: as §1, §2, §3, §4
For assay [3], the system named is Human breast cancer cells MCF-7. Kind of assay: Cell anti-proliferation assay (MTT), MCF-7. Type of assay: cell-based. As to conditions: Homo sapiens, MCF7, 120 h, MCF-7 cells, incubated for 5 days. The protocol: as §1, §2, §3, §4
Assay [4] addresses T1, CDK6/CyclinD3 (Homo sapiens, UniProt Q00534).
T1 construct: purchased Carna 04-107
Kind of assay: Kinase activity assay (MSA, EZ Reader) against CDK6. To be noted: CDK6/CyclinD3 5.00 nM, ATP 350 µM, FL-Peptide34, 10mM MgCl2. It counts as biochemical.

The target in assay [5] is CDK4/CycD1 (Homo sapiens, UniProt P11802). Kind of assay: Kinase activity assay (MSA, EZ Reader) against CDK4.
CDK4/CycD1, sequence (P11802 whole entry): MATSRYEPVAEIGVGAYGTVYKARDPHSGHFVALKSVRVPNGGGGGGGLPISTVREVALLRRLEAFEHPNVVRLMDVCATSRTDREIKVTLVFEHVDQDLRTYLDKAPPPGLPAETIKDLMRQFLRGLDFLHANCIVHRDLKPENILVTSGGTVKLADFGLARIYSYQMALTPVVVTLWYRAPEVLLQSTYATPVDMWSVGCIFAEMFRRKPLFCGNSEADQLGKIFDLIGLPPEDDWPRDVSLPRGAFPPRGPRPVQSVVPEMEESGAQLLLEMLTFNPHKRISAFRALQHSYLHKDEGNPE

T1 sequence (Q00534 whole entry): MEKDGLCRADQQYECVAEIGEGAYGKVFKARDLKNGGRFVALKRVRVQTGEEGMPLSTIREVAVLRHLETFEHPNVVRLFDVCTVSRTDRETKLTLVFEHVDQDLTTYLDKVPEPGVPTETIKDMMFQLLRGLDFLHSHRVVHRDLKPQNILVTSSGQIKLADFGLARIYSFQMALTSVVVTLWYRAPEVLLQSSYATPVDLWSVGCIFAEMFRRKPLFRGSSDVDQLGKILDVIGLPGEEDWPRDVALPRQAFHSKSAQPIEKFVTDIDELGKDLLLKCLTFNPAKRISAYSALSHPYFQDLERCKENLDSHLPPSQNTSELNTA
T1 sequence (P30281 whole entry partner): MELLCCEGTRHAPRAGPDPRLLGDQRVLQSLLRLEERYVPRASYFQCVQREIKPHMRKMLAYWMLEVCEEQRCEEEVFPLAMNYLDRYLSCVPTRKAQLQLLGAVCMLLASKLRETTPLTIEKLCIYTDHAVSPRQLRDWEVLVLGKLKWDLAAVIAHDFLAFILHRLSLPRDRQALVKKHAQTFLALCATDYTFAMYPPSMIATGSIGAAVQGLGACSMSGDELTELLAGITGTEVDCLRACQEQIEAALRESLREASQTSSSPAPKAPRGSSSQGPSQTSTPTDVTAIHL

Usually IC50 stands for the midpoint of a concentration-inhibition curve. Take `CC(C)n1c(N(C)C)nc2c(F)cc(-c3nc(N[C@@H]4CCOC[C@H]4O)ncc3Cl)cc21` [TB-1]: the IC50 is at most 0.5 µM in assay [1]; at most 0.5 µM in assay [2]; at most 0.5 µM in assay [3]; 0.0678 µM in assay [4]; 0.0037 µM in assay [5].

`CC(C)n1c(N(C)C)nc2c(F)cc(-c3nc(NC4CCOCC4)ncc3Cl)cc21` [TB-2, 6-(5-chloro-2-((tetrahydro-2H-pyran-4-yl)amino)pyrimidin-4-yl)-4-fluoro-1-isopropyl-N,N-dimethyl-1H-benzo[d]imidazol-2-amine]: the IC50 in assay [1] was at most 0.5 µM; in assay [2] it was at most 0.5 µM; in assay [3], at most 0.5 µM; in assay [4], 0.319 µM; in assay [5], 0.018 µM.

As to `CC(C)n1c(N(C)C)nc2c(F)cc(-c3nc(NC4CCN(S(C)(=O)=O)CC4)ncc3Cl)cc21` [TB-3, 6-(5-chloro-2-((1-(methylsulfonyl)piperidin-4-yl)amino)pyrimidin-4-yl)-4-fluoro-1-isopropyl-N,N-dimethyl-1H-benzo[d]imidazol-2-amine], the IC50 is at most 0.5 µM in assay [1]; at most 0.5 µM in assay [2]; at most 0.5 µM in assay [3]; 0.0749 µM in assay [4]; 0.00697 µM in assay [5].

Turning to `CC(C)n1c(N(C)C)nc2c(F)cc(-c3nc(N[C@H]4CC[C@H](NS(C)(=O)=O)CC4)ncc3Cl)cc21` [TB-5], the IC50 was at most 0.5 µM in assay [1]; at most 0.5 µM in assay [2]; at most 0.5 µM in assay [3]; 0.0716 µM in assay [4]; 0.00424 µM in assay [5].

For the compound `CC(C)n1c(N2CC[C@H](O)C2)nc2c(F)cc(-c3nc(N[C@@H]4CCOC[C@H]4O)ncc3Cl)cc21` [TB-6, (S)-1-(6-(5-chloro-2-(((3S,4R)-3-hydroxytetrahydro-2H-pyran-4-yl)amino)pyrimidin-4-yl)-4-fluoro-1-isopropyl-1H-benzo[d]imidazol-2-yl)pyrrolidin-3-ol], the IC50 is at most 0.5 µM in assay [1]; at most 0.5 µM in assay [2]; 0.5 to 2 µM in assay [3]; 0.19 µM in assay [4]; 0.0108 µM in assay [5].

On to `CC(C)n1c(N2CC[C@@H](O)C2)nc2c(F)cc(-c3nc(N[C@@H]4CCOC[C@H]4O)ncc3Cl)cc21` [TB-7, (R)-1-(6-(5-chloro-2-(((3S,4R)-3-hydroxytetrahydro-2H-pyran-4-yl)amino)pyrimidin-4-yl)-4-fluoro-1-isopropyl-1H-benzo[d]imidazol-2-yl)pyrrolidin-3-ol], for which the half-maximal inhibitory concentration (IC50) is at most 0.5 µM in assay [1]; at most 0.5 µM in assay [2]; at most 0.5 µM in assay [3]; 0.113 µM in assay [4]; 0.00294 µM in assay [5].

Regarding `COC(=O)N(C)c1nc2c(F)cc(-c3nc(N[C@@H]4CCOC[C@H]4O)ncc3Cl)cc2n1C(C)C` [TB-8, methyl (6-(5-chloro-2-(((3S,4R)-3-hydroxytetrahydro-2H-pyran-4-yl)amino)pyrimidin-4-yl)-4-fluoro-1-isopropyl-1H-benzo[d]imidazol-2-yl)(methyl)carbamate], the IC50 in assay [1] was at most 0.5 µM; in assay [2] it was at most 0.5 µM; in assay [3] it was 0.5 to 2 µM; in assay [4], 0.334 µM; in assay [5], 0.0188 µM.

With `CC(C)n1c(N(C)CCO)nc2c(F)cc(-c3nc(N[C@@H]4CCOC[C@H]4O)ncc3Cl)cc21` [TB-9, (3S,4R)-4-((5-chloro-4-(4-fluoro-2-((2-hydroxyethyl)(methyl)amino)-1-isopropyl-1H-benzo[d]imidazol-6-yl)pyrimidin-2-yl)amino)tetrahydro-2H-pyran-3-ol], the IC50 in assay [1] is at most 0.5 µM; in assay [2] it was at most 0.5 µM; in assay [3], 0.5 to 2 µM; in assay [4], 0.223 µM; in assay [5], 0.0401 µM.

In the case of `CC(C)n1c(N2CCCC2)nc2c(F)cc(-c3nc(N[C@@H]4CCOC[C@H]4O)ncc3Cl)cc21` [TB-11, (3S,4R)-4-((5-chloro-4-(4-fluoro-1-isopropyl-2-(pyrrolidin-1-yl)-1H-benzo[d]imidazol-6-yl)pyrimidin-2-yl)amino)tetrahydro-2H-pyran-3-ol], the IC50 is at most 0.5 µM in assay [1]; at most 0.5 µM in assay [2]; at most 0.5 µM in assay [3]; 0.202 µM in assay [4]; 0.00645 µM in assay [5].

As to `CC(C)n1c(N(C)C)nc2c(F)cc(-c3nc(N[C@@H]4CCN(S(C)(=O)=O)C[C@H]4O)ncc3Cl)cc21` [TB-13, (3R,4R)-4-((5-chloro-4-(2-(dimethylamino)-4-fluoro-1-isopropyl-1H-benzo[d]imidazol-6-yl)pyrimidin-2-yl)amino)-1-(methylsulfonyl)piperidin-3-ol], the IC50 in assay [1] was at most 0.5 µM; in assay [2] it was at most 0.5 µM; in assay [3] it was at most 0.5 µM; in assay [4], 0.0186 µM; in assay [5] it was 0.00127 µM.

Take `CC(C)n1c(N2CC(O)C2)nc2c(F)cc(-c3nc(N[C@@H]4CCOC[C@H]4O)ncc3Cl)cc21` [TB-14, 1-(6-(5-chloro-2-(((3S,4R)-3-hydroxytetrahydro-2H-pyran-4-yl)amino)pyrimidin-4-yl)-4-fluoro-1-isopropyl-1H-benzo[d]imidazol-2-yl)azetidin-3-ol]: the IC50 in assay [1] is at most 0.5 µM; in assay [2], at most 0.5 µM; in assay [3], at most 0.5 µM; in assay [4] it was 0.235 µM; in assay [5], 0.00637 µM.

Take `CCN1CCN(Cc2ccc(Nc3ncc(Cl)c(-c4cc(F)c5nc(N(C)C)n(C(C)C)c5c4)n3)nc2)CC1` [TB-16]: the IC50 in assay [1] is at most 0.5 µM; in assay [2] it was at most 0.5 µM; in assay [3] it was at most 0.5 µM; in assay [4] it was 0.0446 µM; in assay [5] it was 0.00692 µM.

Regarding `COc1cc(N2CCNCC2)ccc1Nc1ncc(Cl)c(-c2cc(F)c3nc(N(C)C)n(C(C)C)c3c2)n1` [TB-17, 6-(5-chloro-2-((2-methoxy-4-(piperazin-1-yl)phenyl)amino)pyrimidin-4-yl)-4-fluoro-1-isopropyl-N,N-dimethyl-1H-benzo[d]imidazol-2-amine], the 50% inhibitory concentration (IC50) in assay [1] is 0.5 to 2 µM; in assay [2], 0.5 to 2 µM; in assay [3], 0.5 to 2 µM; in assay [4] it was 0.297 µM; in assay [5], 0.0338 µM.

Consider `CC(C)n1c(N(C)C)nc2c(F)cc(-c3nc(Nc4ccc(N5CCNCC5)cn4)ncc3Cl)cc21` [TB-18, 6-(5-chloro-2-((5-(piperazin-1-yl)pyridin-2-yl)amino)pyrimidin-4-yl)-4-fluoro-1-isopropyl-N,N-dimethyl-1H-benzo[d]imidazol-2-amine], for which the IC50 in assay [1] is at most 0.5 µM; in assay [2], at most 0.5 µM; in assay [3], at most 0.5 µM; in assay [4] it was 0.0137 µM; in assay [5] it was 0.0026 µM.

Take `CC(C)n1c(N2CCCOC2=O)nc2c(F)cc(-c3nc(N[C@@H]4CCOC[C@H]4O)ncc3Cl)cc21` [TB-25]: the IC50 in assay [1] was at most 0.5 µM; in assay [2], at most 0.5 µM; in assay [3], 0.5 to 2 µM; in assay [4] it was over 0.5 µM; in assay [5], 0.0434 µM.

As to `CC(C)n1c(N2CCOC2=O)nc2c(F)cc(-c3nc(Nc4ccc(S(C)(=O)=O)cc4)ncc3Cl)cc21` [TB-54, 3-(6-(5-chloro-2-((4-(methylsulfonyl)phenyl)amino)pyrimidin-4-yl)-4-fluoro-1-isopropyl-1H-benzo[d]imidazol-2-yl)oxazolidin-2-one], the IC50 in assay [4] turned out to be 0.411 µM; in assay [5], 0.101 µM.

For the compound `CC(C)n1c(N2CCOC2=O)nc2c(F)cc(-c3ccnc(NC4CCN(S(C)(=O)=O)CC4)n3)cc21` [TB-94], the IC50 stood at 0.458 µM in assay [4] and 0.0444 µM in assay [5].

For the compound `C[C@H]1CCN(C)c2nc3c(F)cc(-c4nc(N[C@@H]5CCN(S(C)(=O)=O)C[C@H]5O)ncc4Cl)cc3n21` [TB-96], the IC50 in assay [4] came out at 0.0203 µM; in assay [5], 0.0021 µM.

Regarding `CC(C)n1c(N2CCCOC2=O)nc2c(F)cc(-c3nc(NC4CCN(S(C)(=O)=O)CC4)ncc3Cl)cc21` [TB-142], the IC50 in assay [4] was 0.361 µM; in assay [5], 0.0695 µM.

In the case of `CC1(C)Cn2c(nc3c(F)cc(-c4nc(N[C@@H]5CCOC[C@H]5O)ncc4Cl)cc32)S(=O)(=O)C1` [TB-148], the IC50 stood at 0.222 µM in assay [4] and 0.0714 µM in assay [5].
